{"source": "patent US20240358693A1", "about": "“METHODS OF TREATING PAIN” (Aisa Pharma, Inc., priority 2023, published 2024)", "system": "participants with SSc-RP", "experiment": "Average duration of weekly RP attacks (minutes)", "format": "in vivo, human", "description": "The absolute change in average duration of weekly RP attacks from baseline to the end of each dosing period was and will be a secondary outcome variable. The sponsor-developed participant-informed diary was and will be used to record data. Average duration of weekly RP attacks is defined as the total duration of RP attacks divided by total number of RP attacks within the last 7 days of each dosing period. Total duration of RP attacks during the last 7 days of screening period divided by the total number of RP attacks will be used as baseline for the analysis of all periods. The variable will be calculated similar to frequency data as before.", "key": {"[1]": {"conditions": "Cilnidipine 10 mg, n=1, Excluding Outliers, ITT Part A"}, "[2]": {"conditions": "Cilnidipine 10 mg, n=1, ITT Part A"}, "[3]": {"conditions": "Cilnidipine 10 mg, Baseline RCS subgroup 1 (unnamed), ITT Part A"}, "[4]": {"conditions": "Cilnidipine 10 mg, Excluding Outliers, Baseline RCS subgroup 1 (unnamed), ITT Part A"}, "[5]": {"conditions": "Cilnidipine 10 mg, Excluding Outliers, ITT Population - Part A"}, "[6]": {"conditions": "Cilnidipine 10 mg, Excluding Outliers, by Baseline RCS, subgroup 1, ITT Population - Part A"}, "[7]": {"conditions": "Cilnidipine 10 mg, by Baseline RCS, subgroup 1, ITT Population - Part A"}, "[8]": {"conditions": "Cilnidipine 20 mg, n=2, Excluding Outliers, ITT Part A"}, "[9]": {"conditions": "Cilnidipine 20 mg, n=2, ITT Part A"}, "[10]": {"conditions": "Cilnidipine 20 mg, Baseline RCS subgroup 1 (unnamed), ITT Part A"}, "[11]": {"conditions": "Cilnidipine 20 mg, Excluding Outliers, Baseline RCS subgroup 1 (unnamed), ITT Part A"}}, "data": [{"smiles": "COCCOC(=O)C1=C(C)NC(C)=C(C(=O)OC/C=C/c2ccccc2)C1c1cccc([N+](=O)[O-])c1", "note": "(stereo not shown) [Cilnidipine, cilnidipine]", "values": [{"measurement": "Average Duration of Weekly Symptomatic RP Attacks, Change from Baseline, Mean", "setting": "[1]", "value": -16.74, "unit": "min"}, {"measurement": "Average Duration of Weekly Symptomatic RP Attacks, Change from Baseline, Median", "setting": "[1]", "value": -16.74, "unit": "min"}, {"measurement": "Average Duration of Weekly Symptomatic RP Attacks, Mean", "setting": "[1]", "value": 31.64, "unit": "min"}, {"measurement": "Average Duration of Weekly Symptomatic RP Attacks, Median", "setting": "[1]", "value": 31.64, "unit": "min"}, {"measurement": "Average Duration of Weekly Symptomatic RP Attacks, Percent Change from Baseline, Mean", "setting": "[1]", "value": "−34.60", "unit": "%"}, {"measurement": "Average Duration of Weekly Symptomatic RP Attacks, Percent Change from Baseline, Median", "setting": "[1]", "value": "−34.60", "unit": "%"}, {"measurement": "Average Duration of Weekly Symptomatic RP Attacks, Change from Baseline, Mean", "setting": "[2]", "value": -16.74, "unit": "min"}, {"measurement": "Average Duration of Weekly Symptomatic RP Attacks, Change from Baseline, Median", "setting": "[2]", "value": -16.74, "unit": "min"}, {"measurement": "Average Duration of Weekly Symptomatic RP Attacks, Mean", "setting": "[2]", "value": 31.64, "unit": "min"}, {"measurement": "Average Duration of Weekly Symptomatic RP Attacks, Median", "setting": "[2]", "value": 31.64, "unit": "min"}, {"measurement": "Average Duration of Weekly Symptomatic RP Attacks, Percent Change from Baseline, Mean", "setting": "[2]", "value": "−34.60", "unit": "%"}, {"measurement": "Average Duration of Weekly Symptomatic RP Attacks, Percent Change from Baseline, Median", "setting": "[2]", "value": "−34.60", "unit": "%"}, {"measurement": "Average Duration of Weekly Symptomatic RP Attacks, Change from Baseline, Mean", "setting": "[3]", "value": -16.74, "unit": "min"}, {"measurement": "Average Duration of Weekly Symptomatic RP Attacks, Change from Baseline, Median", "setting": "[3]", "value": -16.74, "unit": "min"}, {"measurement": "Average Duration of Weekly Symptomatic RP Attacks, Mean", "setting": "[3]", "value": 31.64, "unit": "min"}, {"measurement": "Average Duration of Weekly Symptomatic RP Attacks, Median", "setting": "[3]", "value": 31.64, "unit": "min"}, {"measurement": "Average Duration of Weekly Symptomatic RP Attacks, Percent Change from Baseline, Mean", "setting": "[3]", "value": "−34.60", "unit": "%"}, {"measurement": "Average Duration of Weekly Symptomatic RP Attacks, Percent Change from Baseline, Median", "setting": "[3]", "value": "−34.60", "unit": "%"}, {"measurement": "Average Duration of Weekly Symptomatic RP Attacks, Change from Baseline, Mean", "setting": "[4]", "value": -16.74, "unit": "min"}, {"measurement": "Average Duration of Weekly Symptomatic RP Attacks, Change from Baseline, Median", "setting": "[4]", "value": -16.74, "unit": "min"}, {"measurement": "Average Duration of Weekly Symptomatic RP Attacks, Mean", "setting": "[4]", "value": 31.64, "unit": "min"}, {"measurement": "Average Duration of Weekly Symptomatic RP Attacks, Median", "setting": "[4]", "value": 31.64, "unit": "min"}, {"measurement": "Average Duration of Weekly Symptomatic RP Attacks, Percent Change from Baseline, Mean", "setting": "[4]", "value": "−34.60", "unit": "%"}, {"measurement": "Average Duration of Weekly Symptomatic RP Attacks, Percent Change from Baseline, Median", "setting": "[4]", "value": "−34.60", "unit": "%"}, {"measurement": "Average Duration of Weekly RP Attacks (All Attacks) Change from Baseline, Mean", "setting": "[5]", "value": -8.48, "unit": "min"}, {"measurement": "Average Duration of Weekly RP Attacks (All Attacks) Change from Baseline, Median", "setting": "[5]", "value": -8.48, "unit": "min"}, {"measurement": "Average Duration of Weekly RP Attacks (All Attacks) Percent Change from Baseline, Mean", "setting": "[5]", "value": "−21.20", "unit": "%"}, {"measurement": "Average Duration of Weekly RP Attacks (All Attacks) Percent Change from Baseline, Median", "setting": "[5]", "value": "−21.20", "unit": "%"}, {"measurement": "Average Duration of Weekly RP Attacks (All Attacks), Mean", "setting": "[5]", "value": 31.52, "unit": "min"}, {"measurement": "Average Duration of Weekly RP Attacks (All Attacks), Median", "setting": "[5]", "value": 31.52, "unit": "min"}, {"measurement": "Average Duration of Weekly RP Attacks (All Attacks) Change from Baseline, Mean", "setting": "[6]", "value": -8.48, "unit": "min"}, {"measurement": "Average Duration of Weekly RP Attacks (All Attacks) Change from Baseline, Median", "setting": "[6]", "value": -8.48, "unit": "min"}, {"measurement": "Average Duration of Weekly RP Attacks (All Attacks) Percent Change from Baseline, Mean", "setting": "[6]", "value": "−21.20", "unit": "%"}, {"measurement": "Average Duration of Weekly RP Attacks (All Attacks) Percent Change from Baseline, Median", "setting": "[6]", "value": "−21.20", "unit": "%"}, {"measurement": "Average Duration of Weekly RP Attacks (All Attacks), Mean", "setting": "[6]", "value": 31.52, "unit": "min"}, {"measurement": "Average Duration of Weekly RP Attacks (All Attacks), Median", "setting": "[6]", "value": 31.52, "unit": "min"}, {"measurement": "Average Duration of Weekly RP Attacks (All Attacks) Change from Baseline, Mean", "setting": "Cilnidipine 10 mg, ITT Part A", "value": -8.48, "unit": "min"}, {"measurement": "Average Duration of Weekly RP Attacks (All Attacks) Change from Baseline, Median", "setting": "Cilnidipine 10 mg, ITT Part A", "value": -8.48, "unit": "min"}, {"measurement": "Average Duration of Weekly RP Attacks (All Attacks) Percent Change from Baseline, Mean", "setting": "Cilnidipine 10 mg, ITT Part A", "value": "−21.20", "unit": "%"}, {"measurement": "Average Duration of Weekly RP Attacks (All Attacks) Percent Change from Baseline, Median", "setting": "Cilnidipine 10 mg, ITT Part A", "value": "−21.20", "unit": "%"}, {"measurement": "Average Duration of Weekly RP Attacks (All Attacks), Mean", "setting": "Cilnidipine 10 mg, ITT Part A", "value": 31.52, "unit": "min"}, {"measurement": "Average Duration of Weekly RP Attacks (All Attacks), Median", "setting": "Cilnidipine 10 mg, ITT Part A", "value": 31.52, "unit": "min"}, {"measurement": "Average Duration of Weekly RP Attacks (All Attacks) Change from Baseline, Mean", "setting": "[7]", "value": -8.48, "unit": "min"}, {"measurement": "Average Duration of Weekly RP Attacks (All Attacks) Change from Baseline, Median", "setting": "[7]", "value": -8.48, "unit": "min"}, {"measurement": "Average Duration of Weekly RP Attacks (All Attacks) Percent Change from Baseline, Mean", "setting": "[7]", "value": "−21.20", "unit": "%"}, {"measurement": "Average Duration of Weekly RP Attacks (All Attacks) Percent Change from Baseline, Median", "setting": "[7]", "value": "−21.20", "unit": "%"}, {"measurement": "Average Duration of Weekly RP Attacks (All Attacks), Mean", "setting": "[7]", "value": 31.52, "unit": "min"}, {"measurement": "Average Duration of Weekly RP Attacks (All Attacks), Median", "setting": "[7]", "value": 31.52, "unit": "min"}, {"measurement": "Average Duration of Weekly Symptomatic RP Attacks, Change from Baseline, Mean", "setting": "[8]", "value": -3.13, "unit": "min"}, {"measurement": "Average Duration of Weekly Symptomatic RP Attacks, Change from Baseline, Median", "setting": "[8]", "value": -3.13, "unit": "min"}, {"measurement": "Average Duration of Weekly Symptomatic RP Attacks, Mean", "setting": "[8]", "value": 16.73, "unit": "min"}, {"measurement": "Average Duration of Weekly Symptomatic RP Attacks, Median", "setting": "[8]", "value": 16.73, "unit": "min"}, {"measurement": "Average Duration of Weekly Symptomatic RP Attacks, Percent Change from Baseline, Mean", "setting": "[8]", "value": "−31.05", "unit": "%"}, {"measurement": "Average Duration of Weekly Symptomatic RP Attacks, Percent Change from Baseline, Median", "setting": "[8]", "value": "−31.05", "unit": "%"}, {"measurement": "Average Duration of Weekly Symptomatic RP Attacks, Change from Baseline, Mean", "setting": "[9]", "value": -3.13, "unit": "min"}, {"measurement": "Average Duration of Weekly Symptomatic RP Attacks, Change from Baseline, Median", "setting": "[9]", "value": -3.13, "unit": "min"}, {"measurement": "Average Duration of Weekly Symptomatic RP Attacks, Mean", "setting": "[9]", "value": 16.73, "unit": "min"}, {"measurement": "Average Duration of Weekly Symptomatic RP Attacks, Median", "setting": "[9]", "value": 16.73, "unit": "min"}, {"measurement": "Average Duration of Weekly Symptomatic RP Attacks, Percent Change from Baseline, Mean", "setting": "[9]", "value": "−31.05", "unit": "%"}, {"measurement": "Average Duration of Weekly Symptomatic RP Attacks, Percent Change from Baseline, Median", "setting": "[9]", "value": "−31.05", "unit": "%"}, {"measurement": "Average Duration of Weekly Symptomatic RP Attacks, Change from Baseline, Mean", "setting": "[10]", "value": -3.13, "unit": "min"}, {"measurement": "Average Duration of Weekly Symptomatic RP Attacks, Change from Baseline, Median", "setting": "[10]", "value": -3.13, "unit": "min"}, {"measurement": "Average Duration of Weekly Symptomatic RP Attacks, Mean", "setting": "[10]", "value": 16.73, "unit": "min"}, {"measurement": "Average Duration of Weekly Symptomatic RP Attacks, Median", "setting": "[10]", "value": 16.73, "unit": "min"}, {"measurement": "Average Duration of Weekly Symptomatic RP Attacks, Percent Change from Baseline, Mean", "setting": "[10]", "value": "−31.05", "unit": "%"}, {"measurement": "Average Duration of Weekly Symptomatic RP Attacks, Percent Change from Baseline, Median", "setting": "[10]", "value": "−31.05", "unit": "%"}, {"measurement": "Average Duration of Weekly Symptomatic RP Attacks, Change from Baseline, Mean", "setting": "[11]", "value": -3.13, "unit": "min"}, {"measurement": "Average Duration of Weekly Symptomatic RP Attacks, Change from Baseline, Median", "setting": "[11]", "value": -3.13, "unit": "min"}, {"measurement": "Average Duration of Weekly Symptomatic RP Attacks, Mean", "setting": "[11]", "value": 16.73, "unit": "min"}, {"measurement": "Average Duration of Weekly Symptomatic RP Attacks, Median", "setting": "[11]", "value": 16.73, "unit": "min"}, {"measurement": "Average Duration of Weekly Symptomatic RP Attacks, Percent Change from Baseline, Mean", "setting": "[11]", "value": "−31.05", "unit": "%"}, {"measurement": "Average Duration of Weekly Symptomatic RP Attacks, Percent Change from Baseline, Median", "setting": "[11]", "value": "−31.05", "unit": "%"}, {"measurement": "Average Duration of Weekly RP Attacks (All Attacks) Change from Baseline, Mean", "setting": "Cilnidipine 20 mg, Excluding Outliers, ITT Population - Part A", "value": -1.09, "unit": "min"}]}]}
